Source: patent US7521414B2, “Polyol macrolide antitumor-antibiotics from the marine actinomycete strain CNQ140” (priority 2003, dated 2009)
≈ marks a conversion by molar mass, not a printed value.

Columns and labels:
Assay type in all cases: cell-based
[1] = test system: vancomycin-resistant Enterococcus faecium (VREF); test: antibiotic activity (MIC) against VREF
Excerpt: (§1) As shown by the data in Table 1 below the invention therapeutic compounds have both anticancer and antibiotic activity, as illustrated in tests against HCT-116 human colon adenocarcinoma cancer cells (HCT-116); methicillin resistant Staphylococcus aureus (MRSA); and vancomycin-resistant Enterococcus faecium (VREF):
(§2) As shown by the data in Table 1 below the invention therapeutic compounds have both anticancer and antibiotic activity, as illustrated in tests against HCT-116 colon cancer cells (HCT-116); methicillin resistant Staphylococcus aureus (MRSA); and vancomycin-resistant Enterococcus faecium (VREF).

all 60 cell lines = test: National Cancer Institute's 60 cancer cell line in vitro cytotoxicity assay
Excerpt: Compounds CNQ140.996a, CNQ140.996b, and CNQ140.996c were examined in the National Cancer Institute's 60 cancer cell line, in vitro, cytotoxicity assay. The following cytoxicity data were derived for the invention compounds: […]

[2] = test system: methicillin resistant Staphylococcus aureus (MRSA); test: antibiotic activity (MIC) against MRSA
Excerpt: as §1, §2

[3] = test system: HCT-116 human colon adenocarcinoma cancer cells; test: anticancer activity against HCT-116 colon cancer cell line; conditions: for growth inhibition against the cancer cell line HCT-116 human colon carcinoma: in words
Description: For extraction of compounds from the CNQ140 actinomycete, the following protocol was used. Pre-washed XAD-7 resin (20 g) was added to 1 liter of culture and mixed for 1 hour. The contents were collected by filtration, washed with deionized water (1 liter) and eluted with acetone (250 ml). The extraction liquid from each successive extraction step (as shown in FIG. 1) was tested for anticancer activity (IC50) against HCT-116 colon cancer cell line. […] A second extraction step using C-18 reverse phase HPLC and a solvent of 65% MeCN in water yielded four distinct compounds with activity against the colon cancer cell line. […] The chemical structures of these compounds appear below:
as §1
Pre-washed XAD-7 resin (20 g) was added to 1 liter of culture and mixed for 1 hour. The contents were collected by filtration, washed with deionized water (1 liter) and eluted with acetone (250 ml). The extraction liquid from each successive extraction step (as shown in FIG. 1) was tested for anti-cancer activity (IC50) against HCT-116 colon cancer cell line. […] A second chromatographic purification step for fraction CNQ140-3, using C-18 reverse phase HPLC and 65% MeCN in water, yielded four distinct CNQ140 macrolide polyol-polyene compounds with activity against the colon cancer cell line: […]

Row | SMILES | VREF (MIC microgm/ml) [1] | GI50 (all 60 cell lines; average over NCI 60 cell lines, read-out: Average GI50 against all 60 cell lines) | tissue type selectivity (all 60 cell lines; most sensitive: 6 of the 8 melanoma cancer types (LOX IMVI, M14, SK-MEL-2, SK-MEL-5, UACC-257, UACC-62)) | MRSA (MIC microgm/ml) [2] | IC50 ([3]; Homo sapiens, HCT-116, HCT-116 cells, read-out: HCT-116 (IC50 microgm/ml)) | growth inhibition against the cancer cell line HCT-116 human colon carcinoma [3] | HCT-116 (IC50 microgm/ml) ([3]; HCT-116 cells)
1 | CCC(O)CC1CC(O)C/C=C/[C@@H](O)C[C@@H](O)C/C(C)=C/C=C/C=C/C=C\c2cccc(O)c2C(=O)OC(CC(C)O)CC(O)C/C=C/[C@@H](O)C[C@@H](O)C/C(C)=C/C=C/C=C/C=C\c2cccc(O)c2C(=O)O1 (stereo partly shown) [CNQ140.996c] | 0.25 microgm/ml | 5.1 nM | significant tissue type selectivity | 0.25 microgm/ml | 2.6 mg/L (≈ 2.57 µM) | showed growth inhibition | 
2 | CCC(O)CC1CC(O)C/C=C/[C@@H](O)C[C@@H](O)C/C(C)=C/C=C/C=C/C=C\c2cccc(O)c2C(=O)OC(CC(C)O)CC(O)C/C=C/[C@@H](O)C[C@@H](O)C/C(C)=C/C=C/C=C/C=C\c2cccc(O)c2C(=O)O1 (stereo partly shown) [CNQ140.1010] | 0.25 microgm/ml |  |  | 0.25 microgm/ml |  | showed growth inhibition | 3.1 microgm/ml
